Measurements from PMC9980389, “Structural and biochemical insights into PsEst3, a new GHSR-type esterase obtained from Paenibacillus sp. R4” (IUCrJ, 2023).

Experiments:
[1] = target: T1, PsEst3 (Paenibacillus sp. R4, UniProt Z9AKP1HDK8); assay: fluorescein diester hydrolysis, fluorescence […] nm; format: biochemical; details: 20 mM Tris-HCl pH 8.0, 150 mM NaCl, 30 °C, 0.1 µM substrate, 10% 2-ethoxyethanol, 0.005% CHAPS
T1 construct: pET-22b in E. coli BL21(DE3)/pPsyGroELS, 6xHis tag kept (Ni-NTA, SEC); residues 4-258 built, including part of the His tag
T1 sequence (Z9AKP1HDK8 1-257): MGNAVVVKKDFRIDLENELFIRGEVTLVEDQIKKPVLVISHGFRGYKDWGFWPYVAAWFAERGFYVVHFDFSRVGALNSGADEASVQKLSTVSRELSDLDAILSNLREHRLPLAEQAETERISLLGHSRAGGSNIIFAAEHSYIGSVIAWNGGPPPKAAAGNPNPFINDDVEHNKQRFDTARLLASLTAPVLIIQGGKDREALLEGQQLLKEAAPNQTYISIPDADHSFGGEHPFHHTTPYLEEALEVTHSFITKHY

[2] = target: T1, PsEst3; assay: inhibition of pNP-C2 hydrolysis, absorbance […] nm; format: biochemical; details: substrate pNP-C2

Structure (SMILES)	fluorescein diester hydrolysis, fluorescence 492/512 nm [1]	% decrease in activity at 2.4 mM [2]
CCCC(=O)Oc1ccc2c(c1)Oc1cc(OC(=O)CCC)ccc1C21OC(=O)c2ccccc21 [fluorescein-diC4, fluorescein dibutyrate]	fluorescein diesters (fluorescein-diC4, fluorescein-diC8 and fluorescein-diC12) were measured	–
O=C(O)/C=C\C(=O)O [maleic acid]	–	~ 40%
